“Also recorded” adds a separate entry of the source.
Assays:
[1] = system: 3D reconstructed epidermis model (Epiderm tissue, Epi-200); experiment: Skin irritation test (OECD TG 439, EPI-200-SIT), MTT viability; assay type: cell-based, human; conditions: for reduction in cell viability in the skin tissue: 1 h exposure, MTT, relative to PBS, SDS 5%, HA-CBT 20 and 2 mg/mL, gly-CBT 1 and 0.1 mg/mL
Protocol: To evaluate the biocompatibility of CBT functionalized molecules, a skin irritation study was conducted using a 3D reconstructed epidermis model supplied by Mattek. The skin irritation test was conducted following the OECD TG 439 protocol as a basis. Upon receiving the Epiderm™ tissue (Epi-200) from Mattek, the tissue inserts were removed from agarose and incubated in 0.9 mL of media in 6 well plates for 1 h at 37° C. The tissue inserts were then transferred to new wells containing 0.9 mL of fresh media, and incubated overnight for 18 h at 37° C. 30 μL of PBS, HA-CBT (20 mg/mL and 2 mg/mL in PBS), gly-CBT (1 mg/mL and 0.1 mg/mL), and SDS (5 wt %) was applied and spread on the top of 3 independent tissue inserts each. After incubation at 37° C. for 1 h, the formulations were pipetted out and the tissue inserts were washed three times with PBS. The tissue inserts were then incubated in fresh media for 24 h at 37° C. The media was then exchanged with fresh media, and the inserts were incubated for an additional 18 h at 37° C. Following incubation, the viability of the tissue was assessed using the MTT assay, discussed in detail in a protocol established by Mattek (EPI-200-SIT).

[2] = Distribution of chemical species in EpiDerm tissue by HPLC with sequential extractions; assay type: in vitro ADME, human
Protocol: To further study the penetration of gly-CBT within human skin tissue, HPLC was used to quantify the distribution of different chemical species after application of gly-CBT and gly-aminoLuciferin (gly-Luc) into EpiDerm™ tissue. As described above, 100 μL of gly-CBT and gly-Luc was applied on the top of the skin tissue. Following 6 h incubation, the donor and acceptor solutions were collected and the chemical species which penetrated the skin were attempted to be extracted with 1:1 MeOH:PBS. Following the first extraction protocol, the tissue inserts were rinsed with PBS and imaged in a dark room by exposing with a UV254 lamp. Following the imaging, further extractions were carried out sequentially with 1.0% Triton X-100, acidified MeOH (0.1% TFA), and DCM. Neither of the later extractions were successful in extracting out any additional CBT species.

[3] = Skin penetration on porcine skin, fluorescence microscopy of cryosections; assay type: in vitro ADME
Protocol: Frozen, porcine skin was allowed to equilibrate to room temperature, and then cut into ~2×2 cm squares and placed into 0.9 mL of PBS in a 6 well plate. 25 μL of HA-CBT (10 mg/mL in PBS), gly-CBT (1 mg/mL in PBS), and PBS were gently spread on porcine skin to a 1 cm circle with a metal spatula. After spreading the formulations, the 6 well plate was placed into a humidified incubator at 37° C. for 18 h.
A small region in the center of the application area was then excised using a surgical scalpel, and placed into OCT in a biopsy mold. The tissue was snap frozen by placing the biopsy mold directly into a methylpentane, dry ice slurry. The tissue was then sectioned on a cryostat microtome to 20 μm sections. A drop of ProLong Gold was placed on each section and covered with a coverslip prior to imaging. Images were taken on a ZeissAxioPlan2 using a 10× objective and a DAPI filter to visualize the location of CBT.

[4] = Penetration of gly-CBT in 3D human skin model (EpiDerm), absorbance at 326 nm and microscopy; assay type: in vitro ADME
Protocol: The penetration and interactions of gly-CBT in human skin was assessed using a 3D human skin model (Mattek EpiDerm™). After allowing the skin tissues to equilibrate with media for 1 h at 37° C. in 6 well plates, the media was replaced with PBS and 100 μL of PBS and gly-CBT (1 mg/mL) were applied on top of 4 skin tissues each. Following 6 h incubation, a single tissue from each group was flash frozen in OCT for cryosectioning and microscopy. For the remaining samples, the liquid which remained on top of the tissue inserts (~100 μL) and the liquid in the acceptor solution (900 μL) was collected. The top of the tissue inserts were then washed 2× with PBS and then the inserts were submerged into 2 mL of a 1:1 PBS:MeOH solution to extract molecules which penetrated the skin. After performing the extraction for 2 h at 37° C., the concentration of gly-CBT was measured in the donor, acceptor, and extract solutions by reading the absorbance at 326 nm with a plate reader. The remaining tissue insert was cryosectioned and imaged using fluorescent microscopy as described in Example 1.

Row | SMILES | reduction in cell viability in the skin tissue [1] | fluorescence of tissue insert under UV lamp ([2]; after first extraction process and washing step) | extractability from the tissue with Triton X-100, acidified methanol and dichloromethane ([2]; sequential extractions after 1:1 MeOH:PBS) | extraction of gly-CBT from porcine skin [3] | fluorescence signal in the dermis ([3]; 18 h at 37 °C, DAPI filter) | fluorescence within the stratum corneum and epidermis ([3]; 18 h at 37 °C, DAPI filter, HA-CBT 10 mg/mL, gly-CBT 1 mg/mL in PBS) | irritation classification ([1]; EPI-200-SIT, relative viability greater than 50% = non-irritant) | applied gly-CBT extracted from within the Epiderm tissue ([4]; 1:1 PBS:MeOH extraction 2 h at 37 °C) | total gly-CBT detected after extraction and in donor and acceptor solutions ([4]; 6 h incubation, 1:1 PBS:MeOH extraction) | fraction of the penetrated amount that appeared in the acceptor compartment ([4]; EpiDerm, 6 hours) | fraction of the penetrated amount that remained in the skin ([4]; EpiDerm, 6 hours) | applied dose that penetrated the skin ([4]; EpiDerm, within 6 hours) | fluorescent signal within the tissue by microscopy ([4]; after 6 h application, cryosection) | applied gly-CBT remaining on the surface of the epiderm tissue ([4]; after 6 h incubation, 1 mg/mL, absorbance 326 nm)
1 | CCCCCCCCCCCCOS(=O)(=O)[O-].[Na+] [SDS, reference compound] | ~100% | – | – | – | – | – | – | – | – | – | – | – | – | –
2 | N#Cc1nc2ccc(NC(=O)CN)cc2s1 [gly-CBT] | neither gly-CBT nor HA-CBT showed any reduction | extremely fluorescent | unable to be extracted; also recorded: could not be removed | inability to extract | lower signal | High fluorescence | non-irritants | ~ 10% | ~ 50% | about ⅓ | ⅔ | about 75% | significant fluorescent signal | ~ 25%

Reference: patent US12721861B2, “Delivery and retention of active agents within the skin” (Fount Bio, Inc., priority 2019, dated 2026)
